Data: patent publication US5332757A, “Oxime derivatives” (Zeneca Limited, priority 1992, dated 1994)

Columns and labels:
5-LO [1] = target: T1, 5-LO (Rattus norvegicus, UniProt P12527); assay: test c) in vivo zymosan-induced liberation of LTB4 in rat air pouch; parameters: species or system male rats; conditions: 3 h; test c), oral
T1 construct: within an air pouch generated within the subcutaneous tissue of the back of male rats; from tissue; host or cells: living male rats, cells of the zymosan-inflamed subcutaneous air pouch
T1 sequence (P12527 1-673): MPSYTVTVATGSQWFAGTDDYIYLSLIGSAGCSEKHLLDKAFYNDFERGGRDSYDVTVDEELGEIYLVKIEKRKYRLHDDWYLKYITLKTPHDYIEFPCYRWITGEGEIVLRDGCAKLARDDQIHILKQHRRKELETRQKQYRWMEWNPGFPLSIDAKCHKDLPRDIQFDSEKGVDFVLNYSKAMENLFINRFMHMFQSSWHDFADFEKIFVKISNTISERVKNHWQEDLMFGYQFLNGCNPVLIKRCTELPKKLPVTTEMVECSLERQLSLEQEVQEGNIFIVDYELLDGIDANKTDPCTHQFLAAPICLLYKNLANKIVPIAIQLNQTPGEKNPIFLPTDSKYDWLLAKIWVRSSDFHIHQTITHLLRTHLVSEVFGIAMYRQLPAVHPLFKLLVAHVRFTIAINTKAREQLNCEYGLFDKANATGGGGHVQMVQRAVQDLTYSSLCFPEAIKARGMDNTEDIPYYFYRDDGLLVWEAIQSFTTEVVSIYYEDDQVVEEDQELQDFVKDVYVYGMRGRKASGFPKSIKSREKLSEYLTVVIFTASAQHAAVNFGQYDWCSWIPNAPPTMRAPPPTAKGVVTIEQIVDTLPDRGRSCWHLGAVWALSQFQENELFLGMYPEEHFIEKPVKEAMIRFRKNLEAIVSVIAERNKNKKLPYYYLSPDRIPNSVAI
Procedure: c) An in vivo system involving measuring the effects of a test compound administered orally against the liberation of LTB4 induced by zymosan within an air pouch generated within the subcutaneous tissue of the back of male rats. The rats are anaesthetised and air pouches are formed by the injection of sterile air (20 ml). A further injection of air (10 ml) is similarly given after 3 days. At 6 days after the initial air injection the test compound is administered (usually orally as the suspension produced when a solution of the test compound in dimethylsulphoxide is added to hydroxypropylmethylcellulose), followed by the intrapouch injection of zymosan (1 ml of a 1% suspension in physiological saline). After 3 hours the rats are killed, the air pouches are lavaged with physiological saline, and the specific radioimmunoassay described above is used to assay LTB4 in the washings. This test provides an indication of inhibitory effects against 5-LO in an inflammatory milieu.

5-LO [2] = target: T2, 5-LO (Homo sapiens, UniProt P09917); assay: test a) in vitro assay, heparinised human blood challenged with calcium ionophore A23187, LTB4 radioimmunoassay; format: cell-based
T2 construct: incubating a test compound with heparinised human blood, prior to challenge with the calcium ionophore A23187; from tissue; host or cells: heparinised human blood (endogenous enzyme of the blood cells)
T2 sequence (P09917 1-674): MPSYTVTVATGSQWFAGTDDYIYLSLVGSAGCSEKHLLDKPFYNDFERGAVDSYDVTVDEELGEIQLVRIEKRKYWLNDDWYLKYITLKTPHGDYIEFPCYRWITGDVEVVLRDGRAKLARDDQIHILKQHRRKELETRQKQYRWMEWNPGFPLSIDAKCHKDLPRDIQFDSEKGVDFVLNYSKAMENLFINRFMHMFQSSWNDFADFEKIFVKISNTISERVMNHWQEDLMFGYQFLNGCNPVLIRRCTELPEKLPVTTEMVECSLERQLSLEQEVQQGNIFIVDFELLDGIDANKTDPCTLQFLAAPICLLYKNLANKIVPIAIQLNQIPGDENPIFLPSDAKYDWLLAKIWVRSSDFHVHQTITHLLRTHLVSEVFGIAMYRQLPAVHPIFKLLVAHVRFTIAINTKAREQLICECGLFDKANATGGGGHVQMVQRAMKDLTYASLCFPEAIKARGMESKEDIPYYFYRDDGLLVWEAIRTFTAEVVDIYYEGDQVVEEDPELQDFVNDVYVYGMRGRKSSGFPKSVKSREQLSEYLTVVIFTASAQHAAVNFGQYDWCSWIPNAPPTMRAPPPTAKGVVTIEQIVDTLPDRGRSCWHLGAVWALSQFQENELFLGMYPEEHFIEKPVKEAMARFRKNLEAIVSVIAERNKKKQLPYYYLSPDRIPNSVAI
Procedure: a) An in vitro assay system involving incubating a test compound with heparinised human blood, prior to challenge with the calcium ionophore A23187 and then indirectly measuring the inhibitory effects on 5-LO by assaying the amount of LTB4 using specific radioimmunoassays described by Carey and Forder (Prostaglandins, Leukotrienes Med., 1986, 22, 57; Prostaglandins, 1984, 28, 666; Brit. J. Pharmacol., 1985, 84, 34P) which involves the use of a protein-LTB4 conjugate produced using the procedure of Young et alia (Prostaglandins, 1983, 26(4), 605-613). The effects of a test compound on the enzyme cyclooxygenase (which is involved in the alternative metabolic pathway for arachidonic acid and gives rise to prostaglandins, thromboxanes and related metabolites) may be measured at the same time using the specific radioimmunoassay for thromboxane B2 (TxB2) described by Carey and Forder (see above). This test provides an indication of the effects of a test compound against 5-LO and also cyclooxygenase in the presence of blood cells and proteins. It permits the selectivity of the inhibitory effect on 5-LO or cyclooxygenase to be assessed.

| ED50 (5-LO [1]) [mg/kg] | IC50 (5-LO [2]) [nM] | Compound |
| --- | --- | --- |
| ~0.5 | 30 | COC1(c2cc(F)cc(Sc3ccc(/C(C)=N/OCC#N)cc3)c2)CCOCC1 [Example 5, (E)-4'-[5-fluoro-3-(4-methoxytetrahydropyran-4-yl)phenylthio]acetophenone oxime O-cyanomethyl ether] |
| ~0.05 | 40 | CO[C@]1(c2cc(F)cc(Sc3ccc(/C(C)=N/O)cc3)c2)CCO[C@@H](C)C1 [Example 26, (E)-4'-{5-fluoro-3-[(2S,4R)-4-methoxy-2-methyltetrahydropyran-4-yl]phenylthio}acetophenone oxime] |
| ~0.5 | 110 | CO/N=C(\C)c1ccc(Sc2cc(F)cc(C3(OC)CCOCC3)c2)cc1 [Example 2, (E)-4'-[5-fluoro-3-(4-methoxytetrahydropyran-4-yl)phenylthio]acetophenone oxime O-methyl ether] |
